The source of these data is patent US20120308608A1 (priority 2011, published 2012).

Molecules are shown by their SMILES. Entries after “also recorded” stand apart in the source; their conditions may differ.

In test [1] the test system is IFN beta promoter (MDCK-IFNb-Luc). The class given is cell-based, canine.
For test [2], the target named is influenza virus replication machinery (PB1, PB2, PA, nucleocapsid protein of A/WSN/33) (Influenza A virus, UniProt P03427+P03430+P15659+P15682). Description: Influenza virus mini-genome assay. The class given is cell-based, influenza virus strains A/WSN/33. Particulars: A549 cells; increasing ASN2 concentrations.
Test [3] concerns Influenza A/Vietnam/1203/2004 (H5N1) virus. The class given is cell-based. Particulars: A549 cells; multiplicity of 0.01 pfu; 2 days.
The test system of test [4] is Influenza A/PR/8/34 virus. In kind it is cell-based.
The subject of test [5] is IFN production by MDCK cells. In kind it is cell-based, canine.
The subject of the next test is Influenza A/WSN/33 virus. In kind it is cell-based.

In the case of `NS(=O)(=O)c1ccc2nc3c(nc2c1)-c1cccc2cccc-3c12` [ENA51], the “induction of IFNb-luc reporter expression” value in test [1] is reported as “induces IFN independent of virus”.
For `N=C(N/N=C1/C(=O)N(Cc2ccccc2)c2ccccc21)SCC(=O)Nc1ccccc1` [ASN2], the mini-genome luciferase activity result in test [2] was “decreased with increasing concentrations; also recorded: inhibited”. Moreover, the “A/Vietnam/1203/2004 (H5N1) virus replication” value in test [3] is on record as “antiviral activity; also recorded: attenuated”. In test [1], the “induction of IFNb-luc reporter expression” value is on record as “requires virus infection in order to induce IFN in the reporter assay; also recorded: depends on influenza A/PR/8/34 virus infection to induce IFN”. Besides, the “A/PR/8/34 virus replication (HA titer)” value in test [4] was “able to attenuate both A/PR/8/34 and A/WSN/33 virus replication in a dose-dependent manner; also recorded: attenuated”. The “IFN production (IFN bioassay, VSV-GFP growth)” value in test [5] is on record as “able to induce biologically relevant levels of IFN once the Compound-treated cells are also infected with A/PR/8/34; also recorded: able to induce the production of IFN only if the treated cells are infected with influenza A/PR/8/34 virus”. For the same molecule, the “A/WSN/33 virus replication (HA titer)” value with Influenza A/WSN/33 virus is “able to attenuate both A/PR/8/34 and A/WSN/33 virus replication in a dose-dependent manner; also recorded: attenuated”.
